Measurements as given in patent US10206937B2, “Boronic acid derivatives and therapeutic uses thereof” (Qpex Biopharma, Inc., priority 2014, dated 2019).

Test system: strains of Enterobacteriaceae producing various carbapenemases (class A, D and B; 104 strains)
Assay: Antibiotics potentiation by Compound 27 (MIC; meropenem, doripenem, ertapenem, cefepime)
Type: cell-based
Conditions: + 27 = with Compound 27 at fixed 4 μg/ml

**Q.** COc1ccc2c(c1C(=O)O)OB(O)C(Sc1nnc(N)s1)C2 (stereo not shown) [C + 27] was tested. Which MIC (strain KP1081 Klebsiella pneumoniae (NDM-1, TEM-1, SHV-11, CMY-6, CTX-M-15)) did it give?
**A.** Y (MIC of 1 μg/mL to 10 μg/mL)

**Q.** What about the MIC (strain KP1082 Klebsiella pneumoniae (KPC-2, SHV-1)) of the same compound?
**A.** X (MIC of less than 1 μg/mL)

**Q.** And the MIC (strain KP1083 Klebsiella pneumoniae (KPC-3, SHV-1, TEM-1))?
**A.** X (MIC of less than 1 μg/mL)

**Q.** And the MIC (strain KP1084 Klebsiella pneumoniae (KPC-3, SHV-11, TEM-1))?
**A.** Y (MIC of 1 μg/mL to 10 μg/mL)

**Q.** What about the MIC (strain KP1086 Klebsiella pneumoniae (OXA-48, CTX-M-15, TEM, SHV)) of the same compound?
**A.** Z (MIC of greater than 10 μg/mL)

**Q.** What about the MIC (strain KP1087 Klebsiella pneumoniae (KPC-2, CTX-M-15, SHV-11, TEM-1)) of the same compound?
**A.** Y (MIC of 1 μg/mL to 10 μg/mL)

**Q.** What about the MIC (strain KP1088 Klebsiella pneumoniae (KPC-3, SHV-11, TEM-1)) of the same compound?
**A.** X (MIC of less than 1 μg/mL)

**Q.** And the MIC (strain KP1089 Klebsiella pneumonias (OXA-181, CTX-M-15, TEM, SHV))?
**A.** Y (MIC of 1 μg/mL to 10 μg/mL)

**Q.** What about the MIC (strain KP1095 Klebsiella pneumoniae (KPC-2 TEM-1 SHV-1)) of the same compound?
**A.** X (MIC of less than 1 μg/mL)

**Q.** What about the MIC (strain KP1096 Klebsiella pneumoniae (KPC-2 TEM-181 SHV-11)) of the same compound?
**A.** X (MIC of less than 1 μg/mL)

**Q.** What about the MIC (strain KP1097 Klebsiella pneumonias (IMP-1)) of the same compound?
**A.** X (MIC of less than 1 μg/mL)

**Q.** What about the MIC (strain KP1098 Klebsiella pneumoniae (IMP-26)) of the same compound?
**A.** Y (MIC of 1 μg/mL to 10 μg/mL)

**Q.** And the MIC (strain KP1104 Klebsiella pneumoniae (KPC TEM))?
**A.** X (MIC of less than 1 μg/mL)

**Q.** What about the MIC (strain KP1105 Klebsiella pneumoniae (KPC TEM SHV)) of the same compound?
**A.** X (MIC of less than 1 μg/mL)

**Q.** And the MIC (strain KP1159 Klebsiella pneumoniae (SHV-1(2b); CTX-M-15; IMP-4))?
**A.** X (MIC of less than 1 μg/mL)

**Q.** And the MIC (strain KP1160 Klebsiella pneumoniae (SHV-28(2be); CTX-M-15; IMP-26))?
**A.** X (MIC of less than 1 μg/mL)

**Q.** What about the MIC (strain KP1161 Klebsiella pneumoniae (NDM-1)) of the same compound?
**A.** X (MIC of less than 1 μg/mL)

**Q.** What about the MIC (strain KP1164 Klebsiella pneumoniae (SHV-12(2be); VIM-1)) of the same compound?
**A.** X (MIC of less than 1 μg/mL)

**Q.** And the MIC (strain KP1165 Klebsiella pneumoniae (SHV-11(2b); CTX-M-15; VIM-27))?
**A.** Z (MIC of greater than 10 μg/mL)

**Q.** And the MIC (strain KP1166 Klebsiella pneumoniae (SHV-5(2be); VIM-26))?
**A.** Z (MIC of greater than 10 μg/mL)

**Q.** And the MIC (strain KP1167 Klebsiella pneumoniae (SHV-12(2be); VIM-1))?
**A.** X (MIC of less than 1 μg/mL)

**Q.** And the MIC (strain KP1169 Klebsiella pneumoniae (SHV-11(2b); VIM-1))?
**A.** X (MIC of less than 1 μg/mL)

**Q.** And the MIC (strain KP1170 Klebsiella pneumoniae (SHV-11(2b); CTX-M-15; NDM-1))?
**A.** X (MIC of less than 1 μg/mL)

**Q.** What about the MIC (strain KP1172 Klebsiella pneumoniae (SHV-31(2be); DHA-1; VIM-1)) of the same compound?
**A.** X (MIC of less than 1 μg/mL)

**Q.** And the MIC (strain KP1173 Klebsiella pneumoniae (TEM-33(2br); CTX-M-15; IMP-1))?
**A.** X (MIC of less than 1 μg/mL)

**Q.** And the MIC (strain KP1174 Klebsiella pneumoniae (CTX-M-14; IMP-1))?
**A.** X (MIC of less than 1 μg/mL)

**Q.** And the MIC (strain KP1175 Klebsiella pneumoniae (SHV-OSBL(2b); VIM-1))?
**A.** X (MIC of less than 1 μg/mL)

**Q.** What about the MIC (strain KP1177 Klebsiella pneumoniae (SHV-OSBL(2b), TEM-OSBL(2b); CTX-M-15; NDM-1)) of the same compound?
**A.** X (MIC of less than 1 μg/mL)

**Q.** And the MIC (strain KP1178 Klebsiella pneumoniae (SHV-OSBL(2b;) TEM-OSBL(2b); CTX-M-15; NDM-1))?
**A.** X (MIC of less than 1 μg/mL)

**Q.** What about the MIC (strain KP1179 Klebsiella pneumoniae (SHV-12(2be), TEM-OSBL(2b); CTX-M-15; NDM-7)) of the same compound?
**A.** X (MIC of less than 1 μg/mL)

**Q.** And the MIC (strain KP1180 Klebsiella pneumoniae (SHV-OSBL(2b), TEM-OSBL(2b); CTX-M-15; DHA-1; IMP-26))?
**A.** X (MIC of less than 1 μg/mL)

**Q.** And the MIC (strain KP1181 Klebsiella pneumoniae (SHV-OSBL(2b); CTX-M-15; IMP-26))?
**A.** X (MIC of less than 1 μg/mL)

**Q.** And the MIC (strain KP1183 Klebsiella pneumoniae (SHV-OSBL(2b), TEM-OSBL(2b); CTX-M-15; NDM-1))?
**A.** X (MIC of less than 1 μg/mL)

**Q.** And the MIC (strain KP1184 Klebsiella pneumoniae (SHV-OSBL(2b); IMP-1))?
**A.** X (MIC of less than 1 μg/mL)

**Q.** And the MIC (strain KP1185 Klebsiella pneumoniae (SHV-OSBL(2b), TEM-OSBL(2b); IMP-4))?
**A.** Y (MIC of 1 μg/mL to 10 μg/mL)

**Q.** And the MIC (strain KP1186 Klebsiella pneumoniae (CTX-M-15; NDM-1))?
**A.** Y (MIC of 1 μg/mL to 10 μg/mL)

**Q.** And the MIC (strain KP1187 Klebsiella pneumoniae (SHV-55(2be), TEM-OSBL(2b); CTX-M-15; NDM-1))?
**A.** X (MIC of less than 1 μg/mL)

**Q.** What about the MIC (strain KP1188 Klebsiella pneumoniae (SHV-OSBL(2b); CTX-M-15; NDM-1)) of the same compound?
**A.** Y (MIC of 1 μg/mL to 10 μg/mL)

**Q.** And the MIC (strain KP1189 Klebsiella pneumoniae (TEM-OSBL(2b); CTX-M-15; CTX-M-27; NDM-1))?
**A.** X (MIC of less than 1 μg/mL)

**Q.** And the MIC (strain KPM1123 Klebsiella pneumoniae (KPC-2 TEM SHV))?
**A.** X (MIC of less than 1 μg/mL)

**Q.** And the MIC (strain KPM1202 Klebsiella pneumoniae (KPC SHV TEM))?
**A.** X (MIC of less than 1 μg/mL)

**Q.** And the MIC (strain KPM1203 Klebsiella pneumoniae (KPC SHV TEM))?
**A.** X (MIC of less than 1 μg/mL)

**Q.** What about the MIC (strain KPM1344 Klebsiella pneumoniae (VIM-1)) of the same compound?
**A.** X (MIC of less than 1 μg/mL)

**Q.** What about the MIC (strain KPM1345 Klebsiella pneumoniae (VIM-1 SHV)) of the same compound?
**A.** X (MIC of less than 1 μg/mL)

**Q.** And the MIC (strain KPM1347 Klebsiella pneumoniae (NDM-1 SHV CTX-M-15))?
**A.** X (MIC of less than 1 μg/mL)

**Q.** And the MIC (strain KX1017 Klebsiella oxytoca (KPC-2, OXA-2, SHV-30))?
**A.** X (MIC of less than 1 μg/mL)

**Q.** What about the MIC (strain KX1018 Klebsiella oxytoca (KPC-2, SHV-40, OXY-1)) of the same compound?
**A.** X (MIC of less than 1 μg/mL)

**Q.** And the MIC (strain KX1019 Klebsiella oxytoca (KPC-2, OXA-2))?
**A.** X (MIC of less than 1 μg/mL)

**Q.** And the MIC (strain PM1024 Proteus mirabilis (TEM-1(2b); CMY-16; VIM-1))?
**A.** X (MIC of less than 1 μg/mL)

**Q.** And the MIC (strain PM1026 Proteus mirabilis (DHA-1; IMP-26))?
**A.** X (MIC of less than 1 μg/mL)

**Q.** And the MIC (strain PM1027 Proteus mirabilis (VIM-5))?
**A.** X (MIC of less than 1 μg/mL)

**Q.** And the MIC (strain SM1023 Serratia marcescens (VIM-4))?
**A.** Y (MIC of 1 μg/mL to 10 μg/mL)
